Experimental data: BindingDB's records for doi:10.1016/j.bmcl.2008.12.062 (Bristol-Myers Squibb, 2009)
pIC50: −log10 of the molar value.

Test: Antagonist activity at CCR2 in human PBMCs assessed as inhibition of MCP1-induced chemotaxis

Structure (SMILES) | pIC50
CSc1ccc(C(=O)NC2CC(N)CCC2NC(=O)CNC(=O)c2cc(C(F)(F)F)ccc2N)cc1 (racemic) [(+/-)-2-amino-N-(2-(4-amino-2-(4-(methylthio)benzamido)cyclohexylamino)-2-oxoethyl)-5-(trifluoromethyl)benzamide] | 7.87
CC(=O)Nc1ccc(CNC2CC(N(C)C)CCC2NC(=O)CNC(=O)c2cccc(C(F)(F)F)c2)cc1 (racemic) [(+/-)-N-(2-(2-(4-acetamidobenzylamino)-4-(dimethylamino)cyclohexylamino)-2-oxoethyl)-3-(trifluoromethyl)benzamide] | 7.76
CN(C)C1CCC(NC(=O)CNC(=O)c2cccc(C(F)(F)F)c2)C(NCc2ccc3[nH]ccc3c2)C1 (racemic) [(+/-)-N-(2-(2-((1H-indol-5-yl)methylamino)-4-(dimethylamino)cyclohexylamino)-2-oxoethyl)-3-(trifluoromethyl)benzamide] | 7.64
CSc1ccc(CNC2CC(N(C)C)CCC2NC(=O)CNC(=O)c2cccc(C(F)(F)F)c2)cc1 (racemic) [(+/-)-N-(2-(4-(dimethylamino)-2-(4-(methylthio)benzylamino)cyclohexylamino)-2-oxoethyl)-3-(trifluoromethyl)benzamide] | 7.65
COc1ccc(CNC2CC(N(C)C)CCC2NC(=O)CNC(=O)c2cccc(C(F)(F)F)c2)cc1 (racemic) [(+/-)-N-(2-(4-(dimethylamino)-2-(4-methoxybenzylamino)cyclohexylamino)-2-oxoethyl)-3-(trifluoromethyl)benzamide] | 7.38
Cc1ccc(CNC2CC(N(C)C)CCC2NC(=O)CNC(=O)c2cccc(C(F)(F)F)c2)cc1 (racemic) [(+/-)-N-(2-(4-(dimethylamino)-2-(4-methylbenzylamino)cyclohexylamino)-2-oxoethyl)-3-(trifluoromethyl)benzamide] | 7.90
CSc1ccc(C(=O)NC2CC(NC(=O)OCc3ccccc3)CCC2NC(=O)CNC(=O)c2cccc(C(F)(F)F)c2)cc1 (racemic) [(+/-)-benzyl3-(4-(methylthio)benzamido)-4-(2-(3-(trifluoromethyl)benzamido)acetamido)cyclohexylcarbamate] | 8.29
